# “Also recorded” adds a separate entry of the source. Marks after values point to notes of the source that are not given here.
# Legend:
# [1] = system: experimental autoimmune uveitis (EAU); experiment: Therapeutic effect on IRBP-induced experimental autoimmune uveitis in rats; slit-lamp ocular inflammation score (Caspi clinical grading); assay type: in vivo, SD rats; conditions: 20 mg/kg intraperitoneal; for Scores of ocular inflammation in rats: EAU SD rats
# scleritis [2] = experiment: Clinical efficacy on scleritis: vision recovery in one month (logarithmic visual acuity chart); assay type: in vivo, patients; conditions: for Ineffective / Total effective rate / Improved / Significantly improved vision: scleritis patients, n=10 per group, vision recovery in one month; for Improved: improving 1-2 lines; for Significantly improved vision: improving 3 lines or more
# Experimental: (§1) Twenty patients with scleritis were randomly divided into chlorogenic acid test group (10 patients) and control group (10 patients). Patients in chlorogenic acid test group were given chlorogenic acid at a dose of 3 mg/(kg·d) by intramuscular injection. The patients in the control group were given dexamethasone sodium phosphate (5 mg/d) by intravenous injection, and after continuous observation and treatment for 5 days, they initially received oral […] (1 mg/(kg·d)). Both groups were continuously administrated for one month.
# (§2) According to the random table, 20 patients with scleritis were randomly divided into two groups, namely chlorogenic acid test group and dexamethasone sodium phosphate control group. Among 10 patients of chlorogenic acid control group, there were one male and 9 females, with an average age of (30.5±5.1) years old and an average course of disease (5.1±0.3). In the dexamethasone sodium phosphate control group, there were one male and 9 females, with an average age of (31.5±4.7) years old and an average course of disease (5.5±0.3). For both groups of patients, there was no statistically significant difference (P>0.05) in the clinical data including age, gender, and disease course, having comparability.
# (§3) (1) Inquiring the medical history in detail, performing detailed examinations such as slit lamp examination, fundus examination, ultrasound examination, eye imaging, etc., and making a clear diagnosis of the patient with scleritis; (2) No glucocorticoid and chlorogenic acid contraindications; (3) Patients having non-microbial infectious scleritis; (4) Patients having no obvious abnormalities in blood routine, electrolytes, liver function, kidney function, blood pressure, blood sugar, and so on.
# (§4) (1) Patients with microbial infectious scleritis and systemic infectious diseases; (2) Episcleritis; (3) Patients allergic to glucocorticoids or having toxic side effects due to administration of glucocorticoids; (4) Pregnant women and lactating women as well as babies; (5) Patients with moderate hypertension, severe cardiovascular and cerebrovascular diseases, diabetes, as well as liver and kidney function impairment; (6) Patients having poor compliance and refusing regular review and follow-up.
# (§5) Patients in chlorogenic acid test group were given chlorogenic acid at a dose of 3 mg/(kg·d) by intramuscular injection. The patients in the control group were given dexamethasone sodium phosphate at 5 mg/day by intravenous infusion, and after continuous observation and treatment for 3 days, they were changed to oral prednison (1 mg/(kg·d)). Both groups were continuously administrated for one month.
# (1) After treatment, the same logarithmic visual acuity chart (the best corrected visual acuity was measured for those with ametropia) was used to detect and record the vision. Significant improvement: improving 3 lines or more; improvement: improving 1-2 lines; ineffective: the vision was not improved or even decreased.
# scleritis [3] = experiment: Clinical efficacy on scleritis: inflammation control in one month; assay type: in vivo, patients; conditions: for Cure / Improved / Ineffective / Total effective rate: scleritis patients, n=10 per group, inflammation control in one month
# Experimental: as §1, §2, §3, §4, §5
# (1) Cure: the eye symptoms and signs completely disappeared after treatment; (2) Improved: the eye symptoms and signs improved after treatment; (3) Ineffective: the inflammation was not controlled, or the situation was the same as before treatment.
# [4] = 3 mg/(kg·d) intramuscular, one month, vs dexamethasone sodium phosphate control, P<0.05
smiles,measurement,setting,value
O=C(/C=C/c1ccc(O)c(O)c1)O[C@@H]1C[C@](O)(C(=O)O)C[C@@H](O)[C@H]1O [Chlorogenic acid],Ocular inflammation (score) compared with the control group at the same time point,"[1]; vs normal saline control, P<0.05",significantly reduced; also recorded: significantly lower
same,Scores of ocular inflammation in rats,[1]; day 6 after immunization,0.6 ± 0.2
same,Scores of ocular inflammation in rats,[1]; day 7 after immunization,0.6 ± 0.2
same,Scores of ocular inflammation in rats,[1]; day 8 after immunization,0.7 ± 0.4
same,Scores of ocular inflammation in rats,[1]; day 9 after immunization,1.1 ± 0.4
same,Scores of ocular inflammation in rats,[1]; day 10 after immunization,1.3 ± 0.6
same,Scores of ocular inflammation in rats,[1]; day 11 after immunization,1.9 ± 0.6
same,Scores of ocular inflammation in rats,[1]; day 12 after immunization,2.0 ± 0.4
same,Scores of ocular inflammation in rats,[1]; day 13 after immunization,1.3 ± 0.6
same,Scores of ocular inflammation in rats,[1]; day 14 after immunization,1.1 ± 0.3
same,Scores of ocular inflammation in rats,[1]; day 15 after immunization,0.5 ± 0.3
same,Scores of ocular inflammation in rats,[1]; day 16 after immunization,0.4 ± 0.3
same,Scores of ocular inflammation in rats,[1]; day 17 after immunization,0.3 ± 0.1
same,Scores of ocular inflammation in rats,[1]; day 18 after immunization,0.3 ± 0.1
same,Scores of ocular inflammation in rats,[1]; day 19 after immunization,0.3 ± 0.1
same,Scores of ocular inflammation in rats,[1]; day 20 after immunization,0.3 ± 0.1
same,Vision recovery versus control group,scleritis [2]; [4],significantly better than the control group
same,Ineffective,scleritis [2],1 (10%) case (%)
same,Total effective rate,scleritis [2],90 (90%)* case (%)
same,Improved,scleritis [2],3 (30%) case (%)
same,Significantly improved vision,scleritis [2],6 (60%)* case (%)
same,Inflammation control effect versus control group,scleritis [3]; [4],significantly better than the control group
same,Cure,scleritis [3],5 (50%)* cases (%)
same,Improved,scleritis [3],3 (30%) cases (%)
same,Ineffective,scleritis [3],2 (20%) cases (%)
same,Total effective rate,scleritis [3],8 (80%)* cases (%)
"C[C@@H]1C[C@H]2[C@@H]3CCC4=CC(=O)C=C[C@]4(C)[C@@]3(F)[C@@H](O)C[C@]2(C)[C@@]1(O)C(=O)COP(=O)(O)O [Control group, dexamethasone sodium phosphate, reference compound]",Ineffective,scleritis [2],4 (40%) case (%)
same,Total effective rate,scleritis [2],60 (60%) case (%)
same,Improved,scleritis [2],3 (30%) case (%)
same,Significantly improved vision,scleritis [2],3 (30%) case (%)
same,Cure,scleritis [3],2 (20%) cases (%)
same,Improved,scleritis [3],3 (30%) cases (%)
same,Ineffective,scleritis [3],5 (50%) cases (%)
same,Total effective rate,scleritis [3],5 (50%) cases (%)
